# Reference: PMC7849180 (Frontiers in Pharmacology, 2020)
# Experiments:
# [1] = Plasma pharmacokinetics, single ascending dose (SAD); assay type: in vivo, human; conditions: for Cmax, geometric mean (CV%) / Tmax, median (min–max): fasting
# Protocol: In SAD part, volunteers were designed into eight SAD cohorts (25, 50, 100, 150, 200, 250, 300 and 400 mg). Among these cohorts, 25 mg was bisected by the 50 mg specification under good manufacturing practices (GMP) condition and provided the certificate of analysis. […] Jaktinib or placebo was administrated after an overnight fast.
# For MAD cohorts, blood samples were collected at 0, 0.25, 0.5, 1, 1.5, 2, 3, 4, 5, 6, 8 and 12 h on day 1; 0 h on day 2, 3, 4, 6 and 7; 0, 0.25, 0.5, 1, 1.5, 2, 3, 4, 5, 6, 8, 12, 24, 36 and 48 h on day 10. In food effect cohort, blood samples were collected at 0, 0.25, 0.5, 1, 1.5, 2, 3, 4, 5, 6, 8, 12, 24, 36, 48, 72, 96 and 120 h in period one of group A; 0, 0.25, 0.5, 1, 1.5, 2, 3, 4, 5, 6, 8, 12, 24, 36 and 48 h in period two of group A and the two periods of group B. Blood samples were centrifuged at 3,000 rpm for 10 min at 2–8 °C and stored at -80 °C until liquid chromatography-mass spectrophotometry (LC-MS/MS) analysis. Urine and feces samples were collected in period one of group A of food effect cohort with the intervals 0, 0–6, 6–12, 12–24, 24–48, 48–72, 72–96, 96–120 and 0–120 h, respectively. […]
# [2] = PK, single intragastric dose; assay type: in vivo, rats
# Protocol: Suzhou Zelgen Biopharmaceuticals Co., Ltd. Jaktinib Hydrochloride Tablets Chemical Drug Class 1 New Drug […]
# Gender Tma x Cma x AUC0-t AUC0-∞ MRT t1/2 […]
# Pharmacokinetic Study of Single-Dose Intragastric Administration in […]
# After a single intragastric administration of 15.3, 30.5 and 61 mg/kg of ZG0128 […]
# drug in three dose groups were 5.74, 8.33 and 12.4 μg/mL, respectively. […]
# ZG0245 was lower than the proportional increase in dose, the increase in the AUC0-t of ZG0163 was directly proportional to the increase in dose, and the increase in the AUC0-t of the metabolite ZG0245 was slightly higher than the proportional increase in dose. Based on the average value of AUC0-t, the absolute bioavailability of the drug in rats receiving a single intragastric administration of 15.3 mg/kg of […] was 40.0%. […]
# [3] = Metabolic stability in liver microsomes; assay type: in vitro ADME, dog
# Protocol: The metabolic stability of ZG0128 (the dihydrochloride monohydrate of ZG0163) was evaluated using human, monkey, dog, rat, and mouse liver microsomes as the in vitro models. The percentages of residues for ZG0128 after incubating in human, monkey, dog, rat, and mouse liver microsomes for 60 minutes was 55.5%, 63.1%, 67.1%, 80.3%, and 79.0%, respectively. The CLint values of in vivo clearance were calculated to be 24.1, 21.6, 33.4, 10.7, 26.0 mL/min/kg, respectively. Thus its was speculated that ZG0128 was a medium clearance drug in humans, monkeys, and mice, a high clearance drug in dogs, and a low clearance drug in rats.
# Using UPLC-UV/Q-TOF MS, the potential metabolites of ZG0128 in various liver microsomes (human, monkey, dog, rat and mouse liver microsomes) incubation systems were identified and the metabolic pathways of ZG0128 were speculated. The main metabolite of ZG0128 in above five types of liver microsomes were primary alcohol metabolite formed by morpholine ring-opening (M3). […]
# [4] = 25–400 mg, linear mixed effects model
compound,measurement,setting,value
Jaktinib,slope (90% CI) for ln AUC0-∞ vs dose,[1]; [4],1.15 (0.96–1.34)
same,slope (90% CI) for ln Cmax vs dose,[1]; [4],1.00 (0.86–1.15)
same,"Cmax, geometric mean (CV%)",[1]; single 25 mg dose,34.50 (51.6) ng/ml
same,"Tmax, median (min–max)",[1]; single 25 mg dose,2.00 (1.00–4.00) h
same,"Cmax, geometric mean (CV%)",[1]; single 50 mg dose,77.56 (72.8) ng/ml
same,"Tmax, median (min–max)",[1]; single 50 mg dose,3.00 (0.50–5.00) h
same,"Cmax, geometric mean (CV%)",[1]; single 100 mg dose,183.48 (33.3) ng/ml
same,"Tmax, median (min–max)",[1]; single 100 mg dose,1.25 (0.50–3.00) h
same,"Cmax, geometric mean (CV%)",[1]; single 150 mg dose,297.18 (36.6) ng/ml
same,"Tmax, median (min–max)",[1]; single 150 mg dose,2.50 (1.50–4.00) h
same,"Cmax, geometric mean (CV%)",[1]; single 200 mg dose,354.52 (44.6) ng/ml
same,"Tmax, median (min–max)",[1]; single 200 mg dose,2.50 (1.00–3.00) h
same,"Cmax, geometric mean (CV%)",[1]; single 250 mg dose,404.20 (36.9) ng/ml
same,"Tmax, median (min–max)",[1]; single 250 mg dose,2.00 (1.00–4.00) h
same,"Cmax, geometric mean (CV%)",[1]; single 300 mg dose,510.54 (35.4) ng/ml
same,"Tmax, median (min–max)",[1]; single 300 mg dose,3.00 (0.50–5.00) h
same,"Cmax, geometric mean (CV%)",[1]; single 400 mg dose,579.35 (42.6) ng/ml
same,"Tmax, median (min–max)",[1]; single 400 mg dose,3.50 (2.00–5.00) h
same,"CL/F, range across cohorts",[1]; single dose 25–400 mg,76.212 to 150.190 L/h
same,"Vz/F, range across cohorts",[1]; single dose 25–400 mg,533.561 to 1033.554 L
same,"median Tmax, range across cohorts",[1]; single dose 25–400 mg jaktinib,1.25 to 3.5 h
same,"t1/2, range across cohorts",[1]; single dose 25–400 mg jaktinib,2.952 to 9.040 h
same,AUC0-t,"[2]; 15.3 mg/kg ZG0128, Female",19400 ± 7500 ng·h/mL
same,AUC0-∞,"[2]; 15.3 mg/kg ZG0128, Female",19400 ± 7500 ng·h/mL
same,Cmax,"[2]; 15.3 mg/kg ZG0128, Female",4820 ± 1250 ng/mL
same,MRT,"[2]; 15.3 mg/kg ZG0128, Female",2.82 ± 0.60 h
same,Tmax,"[2]; 15.3 mg/kg ZG0128, Female",0.5 (0.5-1.0) h
same,t1/2,"[2]; 15.3 mg/kg ZG0128, Female",0.93 ± 0.26 h
same,AUC0-t,"[2]; 15.3 mg/kg ZG0128, Male",24500 ± 11300 ng·h/mL
same,AUC0-∞,"[2]; 15.3 mg/kg ZG0128, Male",24600 ± 11300 ng·h/mL
same,Cmax,"[2]; 15.3 mg/kg ZG0128, Male",6660 ± 2130 ng/mL
same,MRT,"[2]; 15.3 mg/kg ZG0128, Male",2.45 ± 0.29 h
same,Tmax,"[2]; 15.3 mg/kg ZG0128, Male",1.0 (0.5-2.0) h
same,t1/2,"[2]; 15.3 mg/kg ZG0128, Male",0.84 ± 0.20 h
same,AUC0-t,"[2]; 15.3 mg/kg ZG0128, Overall",21900 ng·h/mL
same,AUC0-∞,"[2]; 15.3 mg/kg ZG0128, Overall",22000 ± 9000 ng·h/mL
same,Cmax,"[2]; 15.3 mg/kg ZG0128, Overall",5740 ng/mL
same,MRT,"[2]; 15.3 mg/kg ZG0128, Overall",2.63 ± 0.47 h
same,Tmax,"[2]; 15.3 mg/kg ZG0128, Overall",0.75 (0.5-2.0) h
same,t1/2,"[2]; 15.3 mg/kg ZG0128, Overall",0.89 ± 0.21 h
same,absolute bioavailability,"[2]; 15.3 mg/kg, by AUC0-t",40.0%
same,AUC0-t,"[2]; 30.5 mg/kg ZG0128, Female",39900 ± 13600 ng·h/mL
same,AUC0-∞,"[2]; 30.5 mg/kg ZG0128, Female",40200 ± 13200 ng·h/mL
same,Cmax,"[2]; 30.5 mg/kg ZG0128, Female",9680 ± 3400 ng/mL
same,MRT,"[2]; 30.5 mg/kg ZG0128, Female",3.46 ± 0.75 h
same,Tmax,"[2]; 30.5 mg/kg ZG0128, Female",2.0 (2.0) h
same,t1/2,"[2]; 30.5 mg/kg ZG0128, Female",2.07 ± 2.24 h
same,AUC0-t,"[2]; 30.5 mg/kg ZG0128, Male",41600 ± 19700 ng·h/mL
same,AUC0-∞,"[2]; 30.5 mg/kg ZG0128, Male",43200 ± 21900 ng·h/mL
same,Cmax,"[2]; 30.5 mg/kg ZG0128, Male",6970 ± 1150 ng/mL
same,MRT,"[2]; 30.5 mg/kg ZG0128, Male",3.95 ± 1.68 h
same,Tmax,"[2]; 30.5 mg/kg ZG0128, Male",1.0 (1.0-2.0) h
same,t1/2,"[2]; 30.5 mg/kg ZG0128, Male",1.58 ± 0.75 h
same,AUC0-t,"[2]; 30.5 mg/kg ZG0128, Overall",40800 ng·h/mL
same,AUC0-∞,"[2]; 30.5 mg/kg ZG0128, Overall",41700 ± 16200 ng·h/mL
same,Cmax,"[2]; 30.5 mg/kg ZG0128, Overall",8330 ng/mL
same,MRT,"[2]; 30.5 mg/kg ZG0128, Overall",3.70 ± 1.19 h
same,Tmax,"[2]; 30.5 mg/kg ZG0128, Overall",2.0 (1.0-2.0) h
same,t1/2,"[2]; 30.5 mg/kg ZG0128, Overall",1.82 ± 1.52 h
same,AUC0-t,"[2]; 61 mg/kg ZG0128, Female",82700 ± 31000 ng·h/mL
same,AUC0-∞,"[2]; 61 mg/kg ZG0128, Female",87300 ± 31000 ng·h/mL
same,Cmax,"[2]; 61 mg/kg ZG0128, Female",12100 ± 2600 ng/mL
same,MRT,"[2]; 61 mg/kg ZG0128, Female",4.87 ± 1.22 h
same,Tmax,"[2]; 61 mg/kg ZG0128, Female",4.0 (1.0-6.0) h
same,t1/2,"[2]; 61 mg/kg ZG0128, Female",2.14 ± 0.31 h
same,AUC0-t,"[2]; 61 mg/kg ZG0128, Male",124000 ± 58000 ng·h/mL
same,AUC0-∞,"[2]; 61 mg/kg ZG0128, Male",124000 ± 58000 ng·h/mL
same,Cmax,"[2]; 61 mg/kg ZG0128, Male",12800 ± 1700 ng/mL
same,MRT,"[2]; 61 mg/kg ZG0128, Male",6.20 ± 2.52 h
same,Tmax,"[2]; 61 mg/kg ZG0128, Male",2.0 (2.0-8.0) h
same,t1/2,"[2]; 61 mg/kg ZG0128, Male",1.56 ± 0.59 h
same,AUC0-t,"[2]; 61 mg/kg ZG0128, Overall",103000 ng·h/mL
same,AUC0-∞,"[2]; 61 mg/kg ZG0128, Overall",106000 ± 46000 ng·h/mL
same,Cmax,"[2]; 61 mg/kg ZG0128, Overall",12400 ng/mL
same,MRT,"[2]; 61 mg/kg ZG0128, Overall",5.54 ± 1.92 h
same,Tmax,"[2]; 61 mg/kg ZG0128, Overall",3.0 (1.0-8.0) h
same,t1/2,"[2]; 61 mg/kg ZG0128, Overall",1.85 ± 0.53 h
same,"Tmax, range over doses","[2]; 15.3, 30.5 and 61 mg/kg ZG0128",0.75 to 3.0 h
same,"plasma elimination half-life t1/2, range over doses","[2]; 15.3, 30.5 and 61 mg/kg ZG0128",0.89 to 1.85 h
"Cl.Cl.O.[2H]C1([2H])COCC([2H])([2H])N1c1ccc(Nc2nccc(-c3ccc(C(=O)NCC#N)cc3)n2)cc1 [ZG0128, Jaktinib Dihydrochloride Monohydrate]",CLint of in vivo clearance,[3],33.4 mL/min/kg
same,percentage of residue after 60 minutes,[3],67.1%
